Common to all, as to type: physicochemical
A short description of data set [1]: pH of aqueous solution after 60 minutes in dissolution test using distilled water. As for the experimental part:
Moreover, as described above, since the pH of a local portion that is contacted with a poorly-soluble substance is more important than the pH of a solution as a whole, when an acidic substance is dissolved, desired effects can be obtained even though the pH is not extremely high. It is sufficient if a pH adjuster is used such that the pH of an aqueous solution of a substance with improved aqueous solubility becomes pH 8 or less. […] Herein, the pH of an aqueous solution indicates a pH value that is measured 60 minutes after the addition of a target substance to 50 mL of distilled water in an amount 2 times larger than the substance dissolved in 360 minutes. More specifically, the pH of an aqueous solution indicates a pH value that is measured according to [Dissolution test of poorly-soluble substances] in the below-mentioned Examples.
(§1) From initiation of the test, the mixed solution was stirred with a stirrer having a length of 15 mm. The rotation number of the stirrer was 120 rpm, and all of the tests were conducted in a thermostat at 37±0.5° C. Two types of test solutions, namely, distilled water and 2nd fluid for disintegration test (pH 6.8) of the Japanese Pharmacopoeia were used. As such 2nd fluid for disintegration test of the Japanese Pharmacopoeia, a solution prepared by diluting the 10-fold concentration solution of Kanto Kagaku Co., Ltd. with distilled water was used.

A short description of data set [2]: Dissolution test of poorly-soluble substances, distilled water. As for the experimental part:
as §1
(§2) A comparative test was carried out in the same manner as that described above, with the exception that, instead of a substance with improved aqueous solubility coated with hydroxyapatite microparticles and with a pH adjuster and/or a surfactant, a poorly-soluble substance or the like was used in the same amount as the substance with improved aqueous solubility.
(§3) […] The thus sampled solution was centrifuged at 12,000 rpm for 5 minutes. Thereafter, the substance with improved aqueous solubility and hydroxyapatite microparticles, which had not been dissolved in the solution, were removed. In the case of the comparative test, the poorly-soluble substance or the like, which had not been dissolved in the solution, was removed. An aliquot of this supernatant was immediately frozen. The frozen sample was freeze-dried, and it was then used as a sample in the measurement of the amount of the substance with improved aqueous solubility, which had been dissolved in the test solution. The dissolved poorly-soluble substance was measured mainly using a dual wavelength absorption photometer.

The nature of data set [3]: Dissolution test of poorly-soluble substances, 2nd fluid for disintegration test (pH 6.8) of the Japanese Pharmacopoeia. On the procedure: as §1, §2, §3
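Further: Comparative example rows not the inventive coated formulation.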

Regarding `CCCCNC(=O)NS(=O)(=O)c1ccc(C)cc1` [1-5, Tolbutamide], the “pH at 60 minutes after dissolution” value in data set [1] (Tolbutamide) is recorded as 4.3. In data set [2], the “Dissolved amount, elution time 1 min” value came out at 48.8 µg/mL; the “Dissolved amount, elution time 3 min” value was 49.3 µg/mL; the “Dissolved amount, elution time 10 min” value amounted to 51.3 µg/mL; the “Dissolved amount, elution time 30 min” value is 56.6 µg/mL. Also, in data set [2], the “Dissolved amount, elution time 60 min” value was determined as 50.5 µg/mL; the “Dissolved amount, elution time 180 min” value stood at 52.9 µg/mL; the “Dissolved amount, elution time 360 min” value came to 68.6 µg/mL. Also, in data set [3], the “Dissolved amount, elution time 1 min” value was found to be 637.3 µg/mL; the “Dissolved amount, elution time 3 min” value is 1597.2 µg/mL; the “Dissolved amount, elution time 10 min” value was determined as 2041.9 µg/mL; the “Dissolved amount, elution time 30 min” value was determined as 2141.1 µg/mL. Besides, in data set [3], the “Dissolved amount, elution time 60 min” value is 2449.4 µg/mL; the “Dissolved amount, elution time 180 min” value was 2432.9 µg/mL; the “Dissolved amount, elution time 360 min” value was 2429.1 µg/mL.

On to `NC(N)=Nc1nc(CSCCC(N)=NS(N)(=O)=O)cs1` [3-4, Famotidine], for which the “pH at 60 minutes after dissolution” value in data set [1] (Famotidine) stood at 8.4. For the same molecule, in data set [2], the “Dissolved amount, elution time 1 min” value worked out at 1162.9 µg/mL; the “Dissolved amount, elution time 3 min” value was found to be 1502.6 µg/mL; the “Dissolved amount, elution time 10 min” value worked out at 1416.8 µg/mL; the “Dissolved amount, elution time 180 min” value came out at 1509.8 µg/mL. For the same molecule, in data set [2], the “Dissolved amount, elution time 360 min” value worked out at 1497.4 µg/mL. Also, in data set [3], the “Dissolved amount, elution time 3 min” value was 2286.6 µg/mL; the “Dissolved amount, elution time 10 min” value amounted to 2541.7 µg/mL; the “Dissolved amount, elution time 30 min” value worked out at 2600.9 µg/mL; the “Dissolved amount, elution time 60 min” value amounted to 2667.9 µg/mL. In data set [3], the “Dissolved amount, elution time 180 min” value amounted to 2509.7 µg/mL and the “Dissolved amount, elution time 360 min” value worked out at 2410.4 µg/mL.

For `COc1cc(Cc2cnc(N)nc2N)cc(OC)c1OC` [4-3, Trimethoprim], the “pH at 60 minutes after dissolution” value in data set [1] (Trimethoprim) was determined as 8.4. In data set [2], the “Dissolved amount, elution time 1 min” value is 354.6 µg/mL; the “Dissolved amount, elution time 3 min” value was found to be 531.0 µg/mL; the “Dissolved amount, elution time 10 min” value was 685.0 µg/mL; the “Dissolved amount, elution time 30 min” value stood at 677.9 µg/mL. In data set [2], the “Dissolved amount, elution time 60 min” value was 671.8 µg/mL; the “Dissolved amount, elution time 180 min” value turned out to be 672.0 µg/mL; the “Dissolved amount, elution time 360 min” value turned out to be 656.3 µg/mL. Also, in data set [3], the “Dissolved amount, elution time 1 min” value turned out to be 807.8 µg/mL; the “Dissolved amount, elution time 3 min” value was 1160.4 µg/mL; the “Dissolved amount, elution time 10 min” value came out at 1291.7 µg/mL; the “Dissolved amount, elution time 30 min” value came to 1344.0 µg/mL. For the same molecule, in data set [3], the “Dissolved amount, elution time 60 min” value worked out at 1324.8 µg/mL; the “Dissolved amount, elution time 180 min” value came to 1296.5 µg/mL; the “Dissolved amount, elution time 360 min” value amounted to 1321.9 µg/mL.

In the case of `CC(C)(Sc1cc(C(C)(C)C)c(O)c(C(C)(C)C)c1)Sc1cc(C(C)(C)C)c(O)c(C(C)(C)C)c1` [5-2, Probucol], in data set [2] (Probucol), the “Dissolved amount, elution time 1 min” value came out at 0.7 µg/mL; the “Dissolved amount, elution time 3 min” value was found to be 2.7 µg/mL; the “Dissolved amount, elution time 10 min” value is 3.7 µg/mL; the “Dissolved amount, elution time 30 min” value is 6.1 µg/mL. Further, in data set [2] (Probucol), the “Dissolved amount, elution time 60 min” value came out at 7.6 µg/mL; the “Dissolved amount, elution time 180 min” value is 8.3 µg/mL; the “Dissolved amount, elution time 360 min” value came out at 9.7 µg/mL. For the same molecule, in data set [3] (Probucol), the “Dissolved amount, elution time 1 min” value is 4.7 µg/mL; the “Dissolved amount, elution time 3 min” value was 14.9 µg/mL; the “Dissolved amount, elution time 10 min” value worked out at 19.9 µg/mL; the “Dissolved amount, elution time 30 min” value was 21.2 µg/mL. Besides, in data set [3] (Probucol), the “Dissolved amount, elution time 60 min” value is 21.8 µg/mL; the “Dissolved amount, elution time 180 min” value came to 26.8 µg/mL; the “Dissolved amount, elution time 360 min” value is 28.0 µg/mL.

In the case of `CCN1CCCC1CNC(=O)c1cc(S(N)(=O)=O)ccc1OC` (centres unmarked) [6-4, Sulpiride], in data set [1] (Sulpiride), the “pH at 60 minutes after dissolution” value is 9.3.

Take `CC(=O)SC[C@@H](C)C(=O)N1CCC[C@H]1C(=O)N[C@@H](Cc1ccccc1)C(=O)O` [8-1, Alacepril]: the “pH at 60 minutes after dissolution” value in data set [1] (Alacepril) was 2.9. Besides, in data set [2] (Alacepril), the “Dissolved amount, elution time 3 min” value amounted to 526.2 µg/mL; the “Dissolved amount, elution time 10 min” value was 805.6 µg/mL; the “Dissolved amount, elution time 30 min” value stood at 931.2 µg/mL; the “Dissolved amount, elution time 120 min” value was 994.9 µg/mL. The “Dissolved amount, elution time 360 min” value in data set [2] (Alacepril) came out at 996.5 µg/mL. Besides, in data set [3] (Alacepril), the “Dissolved amount, elution time 3 min” value came to 2311.1 µg/mL; the “Dissolved amount, elution time 10 min” value came to 2514.7 µg/mL; the “Dissolved amount, elution time 30 min” value was determined as 2525.0 µg/mL; the “Dissolved amount, elution time 120 min” value worked out at 2588.4 µg/mL.

Consider `CC[C@H]1OC(=O)[C@H](C)[C@@H](O[C@H]2C[C@@](C)(OC)[C@@H](O)[C@H](C)O2)[C@H](C)[C@@H](O[C@@H]2O[C@H](C)C[C@H](N(C)C)[C@H]2O)[C@](C)(O)C[C@@H](C)C(=O)[C@H](C)[C@@H](O)[C@]1(C)O` [9-1, Erythromycin], for which the “pH at 60 minutes after dissolution” value in data set [1] (Erythromycin) was 9.6. In addition, in data set [2] (Erythromycin), the “Dissolved amount, elution time 3 min” value stood at 635.0 µg/mL; the “Dissolved amount, elution time 10 min” value turned out to be 861.6 µg/mL; the “Dissolved amount, elution time 30 min” value is 944.7 µg/mL; the “Dissolved amount, elution time 120 min” value is 927.7 µg/mL. In addition, the “Dissolved amount, elution time 360 min” value in data set [2] (Erythromycin) was found to be 846.1 µg/mL. Further, in data set [3] (Erythromycin), the “Dissolved amount, elution time 3 min” value turned out to be 2556.3 µg/mL; the “Dissolved amount, elution time 10 min” value stood at 4984.2 µg/mL; the “Dissolved amount, elution time 30 min” value was 5103.6 µg/mL; the “Dissolved amount, elution time 120 min” value stood at 5904.1 µg/mL. In data set [3] (Erythromycin), the “Dissolved amount, elution time 360 min” value came to 6044.7 µg/mL.

`O=C(CCCN1CCC(O)(c2ccc(Cl)cc2)CC1)c1ccc(F)cc1` [10-1, Haloperidol]: in data set [1] (Haloperidol), the “pH at 60 minutes after dissolution” value was found to be 8.1. In addition, in data set [2] (Haloperidol), the “Dissolved amount, elution time 3 min” value worked out at 8.2 µg/mL; the “Dissolved amount, elution time 10 min” value came to 10.0 µg/mL; the “Dissolved amount, elution time 30 min” value is 11.3 µg/mL; the “Dissolved amount, elution time 120 min” value is 12.8 µg/mL. Besides, the “Dissolved amount, elution time 360 min” value in data set [2] (Haloperidol) was 13.1 µg/mL. In data set [3] (Haloperidol), the “Dissolved amount, elution time 3 min” value was 23.9 µg/mL; the “Dissolved amount, elution time 10 min” value came to 35.6 µg/mL; the “Dissolved amount, elution time 30 min” value worked out at 45.2 µg/mL; the “Dissolved amount, elution time 120 min” value was 50.1 µg/mL. Moreover, the “Dissolved amount, elution time 360 min” value in data set [3] (Haloperidol) was determined as 48.9 µg/mL.

(Values after US9248103B2, “Method for improving water solubility of slightly soluble substance” (Kabushiki Kaisha Sangi, priority 2012, dated 2016).)
